From patent US8722661B2, “Pyrrolopyrimidone and pyrrolopyridone inhibitors of tankyrase” (Genentech, Inc., priority 2012, dated 2014)

Legend:
[1] = target: T1, tankyrase 2 (His6-TNKS2) (Homo sapiens, UniProt Q9H2K2); assay: μHTS-TNKS-IWR2 TR-FRET binding assay with His6-TNKS2 in place of TNKS1; conditions: Table I
T1 construct: His6-tankyrase 2 (construct: 934-1166)
Protocol: (§1) μHTS-TNKS-IWR2TR-FRET Binding Assay
(§2) (10 μL/well in BD1536-well plate, a single point)
(§3) Alternatively, in place of His6-TNKS1 can use either His6-tankyrase 2 (construct: 934-1166) (His6-TNKS2) or His6-PARP1 (full length).
(§4) Biotin-IWR2: 10 mM Biotin-IWR2 stock in DMSO, stored at −20° C.
Positive control: 10 mM XAV 939 in DMSO, stored at −20° C.
(§5) Prepare Biotinylated IWR2 stock solution (3.33× stock) for TOTL and cpd wells: 200 nM Biotin-IWR2 in 5% DMSO/AB1b buffer
(§6) Prepare POSITIVE CONTROL well stock solution (3.33× stock): 200 nM XAV939 in 200 nM Biotin-IWR2/5% DMSO/AB1b buffer
(§7) (Alternatively, use TNKS2 or PARP1 stock solutions.)
(§8) Prepare Eu/APC stock solution (5× stock): 3.5 nM Eu-SA/50 nM APC-His6Ab in AB2 buffer
(§9) Add 25 μL/well 1.5% DMSO/AB1c buffer in each compound well to the compound concentration at 74 μM in 8.8% DMSO/AB1c buffer or in the 2 μL DMSO CONTROL wells (BLANK, TOTAL and POSITIVE wells) in the compound plate.
(§10) Transfer 3 μL/well above solution (solution 1,2,3) to an empty assay plate (BD1536-well plate) as follows:
(§11) Transfer 3 μL/well of the above diluted compound solutions or compound dilution buffer to the above assay plate.
(§12) Add 2 μL/well of 300 nM TNKS stock solution (4) to every well in the above assay plate.
(§13) Incubate the assay plate at 26° C. for 30 minutes.
(§14) Incubate the assay plate at 26° C. for 60 minutes.
(§15) Read the assay plate immediately at excitation wavelength of 330 nm and emission wavelength of […] in time resolved fluorescence mode.
(§16) Representative compound data for assays are listed below in Table I. Values are in uM.

[2] = target: T2, Tankyrase 1 (TNKS1) (Homo sapiens, UniProt O95271); assay: μHTS-TNKS-IWR2 TR-FRET binding assay (TNKS1)
T2 construct: construct: 1088-1327, 1266M
T2 sequence (O95271 1088-1327): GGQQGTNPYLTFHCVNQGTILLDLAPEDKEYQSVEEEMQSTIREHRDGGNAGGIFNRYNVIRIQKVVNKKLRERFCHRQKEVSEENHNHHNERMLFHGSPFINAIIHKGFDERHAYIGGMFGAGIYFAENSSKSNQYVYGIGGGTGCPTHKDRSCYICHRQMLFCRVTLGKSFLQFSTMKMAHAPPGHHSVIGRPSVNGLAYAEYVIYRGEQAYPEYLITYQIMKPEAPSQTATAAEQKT
Protocol: as §1, §2
Reagents and Stock Solutions
as §4
Assay buffer 1a (AB 1a) for TNKS dilution: 50 mM Tris, pH 7.4, 100 mM sodium chloride solution, 1 mM magnesium chloride solution, 1 mM DL-dithiothreitol solution, 0.2 mg/mL bovine serum albumin solution, 0.025% NP-40.
Assay buffer 1b (AB 1b) for Biotin-IWR2 dilution: 50 mM Tris, pH 7.4, 100 mM sodium chloride solution, 1 mM magnesium chloride solution, 1 mM DL-dithiothreitol solution, 0.2 mg/mL bovine serum albumin solution, 0.05% NP-40
Assay buffer 1c (AB 1c) for compound dilution: 50 mM Tris, pH 7.4, 100 mM sodium chloride solution, 1 mM magnesium chloride solution, 1 mM DL-dithiothreitol solution, 0.2 mg/mL bovine serum albumin solution
Assay buffer 2 (AB2) for Eu/APC: 50 mM Tris, pH 7.4, 100 mM sodium chloride solution, 1 mM magnesium chloride solution, 0.2 mg/mL bovine serum albumin solution
Reagent Stock Solution Preparation
Prepare BLANK well stock solution: 5% DMSO/AB1b buffer
Prepare TNKS1 stock solution (5× stock): 300 nM TNKS in AB1a buffer
as §10
TOTL and cpd wells: Solution 1 (Biotin-IWR2):
BLNK wells: Solution 2 (No Biotin-IWR2):
POSITIVE CONTROL wells: Solution 3 (Biotin-IWR2+XAV939)
as §11, §12
Centrifuge the assay plate at 2100 rpm for 2 minutes.
as §13, §14

[3] = target: T3, PARP1 (His6-PARP1, full length) (Homo sapiens, UniProt P09874); assay: μHTS-TNKS-IWR2 TR-FRET binding assay with His6-PARP1 in place of TNKS1; conditions: Table I
T3 construct: His6-PARP1 (full length)
T3 sequence (P09874 whole entry): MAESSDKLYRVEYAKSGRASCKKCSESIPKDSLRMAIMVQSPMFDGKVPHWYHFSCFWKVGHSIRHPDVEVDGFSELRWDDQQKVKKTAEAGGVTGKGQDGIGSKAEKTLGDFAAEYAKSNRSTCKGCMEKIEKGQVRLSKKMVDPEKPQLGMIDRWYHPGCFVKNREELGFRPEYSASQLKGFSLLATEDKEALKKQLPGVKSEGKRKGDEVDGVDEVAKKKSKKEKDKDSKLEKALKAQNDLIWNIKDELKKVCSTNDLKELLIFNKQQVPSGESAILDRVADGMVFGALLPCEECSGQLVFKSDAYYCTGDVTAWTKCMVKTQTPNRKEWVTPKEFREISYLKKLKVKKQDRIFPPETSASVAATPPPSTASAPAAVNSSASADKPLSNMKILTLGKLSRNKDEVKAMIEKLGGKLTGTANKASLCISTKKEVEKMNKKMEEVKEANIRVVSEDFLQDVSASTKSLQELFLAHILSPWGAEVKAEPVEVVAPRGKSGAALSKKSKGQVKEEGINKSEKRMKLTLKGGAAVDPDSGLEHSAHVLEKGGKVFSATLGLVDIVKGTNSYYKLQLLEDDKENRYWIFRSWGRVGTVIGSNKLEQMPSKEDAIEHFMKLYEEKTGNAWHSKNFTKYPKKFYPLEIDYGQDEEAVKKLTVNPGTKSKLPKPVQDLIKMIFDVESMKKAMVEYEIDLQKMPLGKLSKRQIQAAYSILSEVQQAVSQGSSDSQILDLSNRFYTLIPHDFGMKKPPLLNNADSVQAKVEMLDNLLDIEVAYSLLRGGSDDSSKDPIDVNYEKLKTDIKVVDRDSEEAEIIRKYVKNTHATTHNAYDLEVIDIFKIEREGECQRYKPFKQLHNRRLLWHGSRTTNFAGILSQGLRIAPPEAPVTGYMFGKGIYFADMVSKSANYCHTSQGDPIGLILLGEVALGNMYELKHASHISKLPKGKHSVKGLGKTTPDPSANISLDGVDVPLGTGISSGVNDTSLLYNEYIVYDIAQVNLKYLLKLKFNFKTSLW
Protocol: as §1, §2, §3, §4
Positive control: 10 mM […] in DMSO, stored at −20° C.
as §5, §6, §7, §8, §9, §10, §11, §12, §13, §14, §15, §16

T1 sequence (Q9H2K2 934-1166): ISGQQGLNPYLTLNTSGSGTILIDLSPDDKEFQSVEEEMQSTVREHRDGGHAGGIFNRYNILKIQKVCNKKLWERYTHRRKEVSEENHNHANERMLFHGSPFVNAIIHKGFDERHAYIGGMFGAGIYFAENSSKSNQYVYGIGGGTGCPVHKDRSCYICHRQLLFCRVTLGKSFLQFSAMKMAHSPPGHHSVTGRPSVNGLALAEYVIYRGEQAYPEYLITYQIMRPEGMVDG

Compound | IC50 [1] [nM] | IC50 [2] [nM] | IC50 [3] [nM]
Cn1ccc2c(=O)[nH]c(N3CCN(c4ccc(Cl)c(Cl)c4)CC3)nc21 [Example 26, 2-[4-(3,4-Dichloro-phenyl)-piperazin-1-yl]-7-methyl-3,7-dihydro-pyrrolo[2,3-d]pyrimidin-4-one] | 153 | 204 | 1250
C=CCCn1ccc2c(=O)[nH]c(N3CCN(c4ccccc4Cl)CC3)nc21 [Example 27, 7-But-3-enyl-2-[4-(2-chloro-phenyl)-piperazin-1-yl]-3,7-dihydro-pyrrolo[2,3-d]pyrimidin-4-one] | 6790 | 5670 | > 50000
Cn1ccc2c(=O)[nH]c(N3CCN(c4ccccc4F)CC3)nc21 [Example 28, 2-[4-(2-Fluoro-phenyl)-piperazin-1-yl]-7-methyl-3,7-dihydro-pyrrolo[2,3-d]pyrimidin-4-one] | 80 | 40 | 3280
Cn1ccc2c(=O)[nH]c(N3CCN(c4ccccc4)CC3)nc21 [Example 29, 7-Methyl-2-(4-phenyl-piperazin-1-yl)-3,7-dihydro-pyrrolo[2,3-d]pyrimidin-4-one] | 45 | 43 | 732
Cn1ccc2c(=O)[nH]c(N3CCN(c4ccccc4Cl)CC3)nc21 [Example 30, 2-[4-(2-Chloro-phenyl)-piperazin-1-yl]-7-methyl-3,7-dihydro-pyrrolo[2,3-d]pyrimidin-4-one] | 33 | 31 | 1400
Cn1ccc2c(=O)[nH]c(N3CCN(c4cnccn4)CC3)nc21 [Example 31, 7-Methyl-2-(2,3,5,6-tetrahydro-[1,2′]bipyrazinyl-4-yl)-3,7-dihydro-pyrrolo[2,3-d]pyrimidin-4-one] | 133 | 155 | 318
Cn1ccc2c(=O)[nH]c(N3CCN(c4ccc(C#N)cn4)CC3)nc21 [Example 32, 6-[4-(7-Methyl-4-oxo-4,7-dihydro-3H-pyrrolo[2,3-d]pyrimidin-2-yl)-piperazin-1-yl]-nicotinonitrile] | 90 | 129 | 229
Cn1ccc2c(=O)[nH]c(N3C[C@@H]4C[C@H]3CN4c3cccc(F)c3)nc21 [Example 33, 2-[(1S,4S)-5-(3-Fluoro-phenyl)-2,5-diaza-bicyclo[2.2.1]hept-2-yl]-7-methyl-3,7-dihydro-pyrrolo[2,3-d]pyrimidin-4-one] | 6080 | 6180 | 1120
Cn1ccc2c(=O)[nH]c(N3CCN(c4c(Cl)cncc4Cl)CC3)nc21 [Example 34, 2-[4-(3,5-Dichloro-pyridin-4-yl)-piperazin-1-yl]-7-methyl-3,7-dihydro-pyrrolo[2,3-d]pyrimidin-4-one] | 24 | 25 | 1370
Cn1ccc2c(=O)[nH]c(N3CCN(c4ccccc4F)CC3)cc21 [Example 35, 6-[4-(2-Fluoro-phenyl)-piperazin-1-yl]-1-methyl-1,5-dihydro-pyrrolo[3,2-c]pyridin-4-one] | 59 | 51 | 1630
CCn1ccc2c(=O)[nH]c(N3CCN(c4ccccc4F)CC3)cc21 [Example 36, 1-Ethyl-6-[4-(2-fluoro-phenyl)-piperazin-1-yl]-1,5-dihydro-pyrrolo[3,2-c]pyridin-4-one] | 251 | 273 | 21000
O=c1[nH]c(-c2ccc(C(F)(F)F)cc2)nc2[nH]ccc12 [Example 37, 2-(4-Trifluoromethyl-phenyl)-3,7-dihydro-pyrrolo[2,3-d]pyrimidin-4-one] | 217 | 110 | 1130
Cn1ccc2c(=O)[nH]c(-c3ccc(C(F)(F)F)cc3)nc21 [Example 38, 7-Methyl-2-(4-trifluoromethyl-phenyl)-3,7-dihydro-pyrrolo[2,3-d]pyrimidin-4-one] | 45 | 38 | 785
COc1ccc(-c2nc3c(ccn3C)c(=O)[nH]2)cc1 [Example 39, 2-(4-Methoxy-phenyl)-7-methyl-3,7-dihydro-pyrrolo[2,3-d]pyrimidin-4-one] | 58 | 54 | 854
CCOc1ccc(-c2nc3c(ccn3C)c(=O)[nH]2)cn1 [Example 40, 2-(6-Ethoxy-pyridin-3-yl)-7-methyl-3,7-dihydro-pyrrolo[2,3-d]pyrimidin-4-one] | 109 | 117 | 289
Cn1ccc2c(=O)[nH]c(-c3cccnc3)nc21 [Example 41, 7-Methyl-2-pyridin-3-yl-3,7-dihydro-pyrrolo[2,3-d]pyrimidin-4-one] | 568 | 764 | 307
Cc1ccc(-c2nc3c(ccn3C)c(=O)[nH]2)cn1 [Example 42, 7-Methyl-2-(6-methyl-pyridin-3-yl)-3,7-dihydro-pyrrolo[2,3-d]pyrimidin-4-one] | 235 | 228 | 166
Cn1ccc2c(=O)[nH]c(-c3ccc(C#N)cc3)nc21 [Example 43, 4-(7-Methyl-4-oxo-4,7-dihydro-3H-pyrrolo[2,3-d]pyrimidin-2-yl)-benzonitrile] | 143 | 110 | 1180
Cn1ccc2c(=O)[nH]c(-c3ccc(C(F)(F)F)nc3)nc21 [Example 44, 7-Methyl-2-(6-trifluoromethyl-pyridin-3-yl)-3,7-dihydro-pyrrolo[2,3-d]pyrimidin-4-one] | 84 | 88 | 93.3
Cn1ccc2c(=O)[nH]c(-c3ccc(C(F)(F)F)cc3)cc21 [Example 45, 1-Methyl-6-(4-trifluoromethyl-phenyl)-1,5-dihydro-pyrrolo[3,2-c]pyridin-4-one] | 39 | 40 | 842
CCn1ccc2c(=O)[nH]c(-c3ccc(C(F)(F)F)cc3)cc21 [Example 46, 1-Ethyl-6-(4-trifluoromethyl-phenyl)-1,5-dihydro-pyrrolo[3,2-c]pyridin-4-one] | 132 | 123 | > 50000
Cn1cc(-c2cc3c(ccn3C)c(=O)[nH]2)cn1 [Example 47, 1-Methyl-6-(1-methyl-1H-pyrazol-4-yl)-1,5-dihydro-pyrrolo[3,2-c]pyridin-4-one] | 135 | 164 | 292
Cn1ccc2c(=O)[nH]c(N3CCC(c4ccc(F)cc4)CC3)nc21 [Example 48, 2-[4-(4-Fluoro-phenyl)-piperidin-1-yl]-7-methyl-3,7-dihydro-pyrrolo[2,3-d]pyrimidin-4-one] | 43 | 43 | 4700
C=CCCn1ccc2c(=O)[nH]c(-c3ccc(C(F)(F)F)cc3)nc21 [Example 49, 7-But-3-enyl-2-(4-trifluoromethyl-phenyl)-3,7-dihydro-pyrrolo[2,3-d]pyrimidin-4-one] | 1360 | 1280 | > 50000
CCn1ccc2c(=O)[nH]c(-c3ccc(C(F)(F)F)cc3)nc21 [Example 50, 7-Ethyl-2-(4-trifluoromethyl-phenyl)-3,7-dihydro-pyrrolo[2,3-d]pyrimidin-4-one] | 163 | 176 | > 50000
CCCn1ccc2c(=O)[nH]c(-c3ccc(C(F)(F)F)cc3)nc21 [Example 51, 7-Propyl-2-(4-trifluoromethyl-phenyl)-3,7-dihydro-pyrrolo[2,3-d]pyrimidin-4-one] | 640 | 535 | > 50000
